Read-outs that look alike come from different tables or passages of the source.
Experiments:
[1] = biological target: recombinant ROCK1 (amino acids 1-535) (Homo sapiens (Human), UniProt Q13464); experiment: Z'-lyte kinase assay, ROCK1; type: biochemical; settings: for inhibition at 0.5 µM: read-out: ROCK1 % inh (0.5 μM)
Method: (§1) Determination of compounds ROCK inhibitory activity in vitro (Z'lyte assay): recombinant ROCK1 (amino acids 1-535) and ROCK2 (amino acids 1-552) proteins were purchased from ThermoFisher Scientific. Compounds activities were measured by Z'-lyte kinase kit (ThermoFisher Scientific) and IC50s were calculated.
(§2) Compounds activities were measured by Z'-lyte kinase kit (ThermoFisher Scientific). […] IC50s were calculated using the GraphPad Prism software with kinase activities data that were collected from 9 points serial dilution of compounds treatment. The ROCK inhibition in A7R5 cells and NIH3T3 (Acta2-Luc) cells was performed as described above.
(§3) The percent inhibition rate was calculated by normalizing the kinase activity value obtained with compound treatment against DMSO control value and then applied to the equation, […]. IC50's were calculated using the nonlinear regression curve fit function of the GraphPad Prism software with kinase activities data measured with 9 points 2-fold serial dilution of compounds treatment.

[2] = system: ACTA2-promoter-driven-luciferase in NIH3T3 cells; experiment: NIH3T3 Acta2-promoter driven-luciferase assay; type: cell-based; settings: Mus musculus, plus TGFβ1, 24 hr, read-out: NIH3T3, Acta2-luc, IC50
Method: NIH3T3 cells Acta2-promoter driven-luciferase assay: A NIH3T3 cell line stably expressing a luciferase reporter driven by the human ACTA2 gene promoter (−1000-1 bp) was established (NIH3T3-Acta2-luciferase). The cells were plated to confluence and treated with the test compounds plus TGFβ1 for 24 hr. Cells were then lysed and luciferase activity was measured using the LightSwitch luciferase kit from Active Motif.
ROCK inhibitors can be effectively rank ordered by ACTA2-promoter-driven-luciferase reporter cell assay. NIH3T3 cells stably expressing ACTA2-promoter-driven-luciferase were applied to measure ROCK compounds functional IC50's in cells. Cells were plated in 96 well plates to confluence and treated with 9 points serial dilution of compounds in combination with TGFβ1 for 24 hr. Luciferase activities were measured and compound's IC50's were calculated using the nonlinear regression curve fit function of the GraphPad Prism software. Compounds of the invention gave in cell IC50's under 200 nM, see FIG. 1c.

[3] = system: ppMlc (T18/S19) levels in A7R5 cells; experiment: A7R5 in-cell ELISA assay (ppMlc); type: cell-based, rat
Method: Determination of compounds ROCK inhibitory activity in A7R5 cells: rat aortic smooth muscle cell line A7R5 cells were maintained and treated in DMEM medium with 10% of fetal bovine serum. Cells were seeded with density of 5,000 cells/well in 96-well plates for 24 hours and subsequently treated 90 min with testing compounds. Cells were then fixed and processed according to the In-Cell ELISA Colorimetric Detection Kit manual (Thermo Scientific).
A7R5 cells were treated with 9 points 2 fold serial dilution of compounds and ppMlc (T18/S19) levels were determined in order to calculate the cellular IC50s of the compounds.
An A7R5 in-cell ELISA assay was performed to determine ROCK inhibition of test articles. A7R5 cells were treated with 9 points 2-fold serial dilution of compounds and ppMlc (T18/S19) levels were determined to calculate cellular IC50 values of the compounds. […] A7R5 cells were treated with 9 points 2-fold serial dilution of compounds and ppMlc (T18/S19) levels were determined to calculate cellular IC50 values of the compounds using the nonlinear regression curve fit function of the GraphPad Prism software.

[4] = biological target: recombinant ROCK2 (amino acids 1-552) (Homo sapiens (Human), UniProt O75116); experiment: Z'-lyte kinase assay, ROCK2; type: biochemical; settings: for inhibition at 0.5 µM: read-out: ROCK2 % inh (0.5 μM)
recombinant ROCK2 (amino acids 1-552), sequence (O75116 1-552): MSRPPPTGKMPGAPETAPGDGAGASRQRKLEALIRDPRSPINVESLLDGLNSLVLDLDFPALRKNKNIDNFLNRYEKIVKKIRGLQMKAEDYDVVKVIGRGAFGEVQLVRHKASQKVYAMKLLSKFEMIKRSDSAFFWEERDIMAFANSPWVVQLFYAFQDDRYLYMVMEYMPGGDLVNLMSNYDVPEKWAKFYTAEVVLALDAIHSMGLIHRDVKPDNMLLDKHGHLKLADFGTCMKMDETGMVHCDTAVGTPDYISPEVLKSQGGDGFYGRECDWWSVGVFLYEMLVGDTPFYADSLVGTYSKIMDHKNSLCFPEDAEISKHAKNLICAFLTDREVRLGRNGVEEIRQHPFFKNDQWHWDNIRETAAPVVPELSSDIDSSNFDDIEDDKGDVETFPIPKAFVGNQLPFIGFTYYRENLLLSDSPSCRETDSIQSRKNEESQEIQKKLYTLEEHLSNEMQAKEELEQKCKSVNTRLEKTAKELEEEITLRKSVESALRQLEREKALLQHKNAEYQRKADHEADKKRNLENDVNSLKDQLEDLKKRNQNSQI
Method: as §1, §2, §3

[5] = Rattus norvegicus, A7R5, A7R5 cells, Table 2, read-out: pMLC IC50 (nM) A7R5

recombinant ROCK1 (amino acids 1-535), sequence (Q13464 1-535): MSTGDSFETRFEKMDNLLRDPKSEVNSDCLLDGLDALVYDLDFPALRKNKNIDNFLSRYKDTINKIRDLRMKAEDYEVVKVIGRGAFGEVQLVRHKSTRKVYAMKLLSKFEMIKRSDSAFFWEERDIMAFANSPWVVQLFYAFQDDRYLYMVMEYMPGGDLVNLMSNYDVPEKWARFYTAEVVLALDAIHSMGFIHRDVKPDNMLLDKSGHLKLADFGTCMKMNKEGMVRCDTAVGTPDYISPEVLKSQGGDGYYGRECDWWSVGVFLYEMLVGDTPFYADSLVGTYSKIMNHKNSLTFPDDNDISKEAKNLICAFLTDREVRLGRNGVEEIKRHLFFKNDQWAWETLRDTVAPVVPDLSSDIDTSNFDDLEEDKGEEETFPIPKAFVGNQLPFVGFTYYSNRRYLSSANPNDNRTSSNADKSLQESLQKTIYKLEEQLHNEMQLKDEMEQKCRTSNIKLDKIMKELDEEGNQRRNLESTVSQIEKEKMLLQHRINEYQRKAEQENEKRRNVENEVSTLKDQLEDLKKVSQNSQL

Compound	IC50 [1]	IC50 [2]	IC50 [3, 5]	IC50 [4]	inhibition at 0.5 µM [1]	inhibition at 0.5 µM [4]	IC50 ([3]; Rattus norvegicus, A7R5, A7R5 cells, ppMlc (T18/S19), in-cell ELISA, read-out: ppMlc IC50)	IC50 ([3]; A7R5 cells, Table 2, read-out: pMLC IC50 (nM) A7R5)
CNC(C(=O)Nc1ccc(-c2cn[nH]c2)cc1)c1ccc2c(C)n[nH]c2c1 (stereo not drawn) [Example 33, N-(4-(1H-pyrazol-4-yl)phenyl)-2-(3-methyl-1H-indazol-6-yl)-2-(methylamino)acetamide]	85 nM	1480 nM	913 nM	29 nM	–	–	–	–
CNC(C(=O)Nc1cc(OC)c(-c2cn[nH]c2)cc1F)c1cccc(OC)c1 (stereo not drawn) [Example 66, N-(2-fluoro-5-methoxy-4-(1H-pyrazol-4-yl)phenyl)-2-(3-methoxyphenyl)-2-(methylamino)acetamide]	56 nM	396 nM	332 nM	18 nM	–	–	–	–
CNC(C(=O)Nc1ccc(-c2cn[nH]c2)cc1)c1ccc(F)cc1 (stereo not drawn) [Example 19, N-(4-(1H-pyrazol-4-yl)phenyl)-2-(4-fluorophenyl)-2-(methylamino)acetamide]	–	190 nM	355 nM	4.8 nM	96%	90%	–	–
CNC(C(=O)Nc1ccc(-c2cn[nH]c2)cc1)c1ccccc1OC (stereo not drawn) [Example 8, N-(4-(1H-pyrazol-4-yl)phenyl)-2-(2-methoxyphenyl)-2-(methylamino)acetamide]	12 nM	–	517 nM	3 nM	–	–	517 nM	–
COc1cccc([C@H](NCCN(C)C)C(=O)Nc2ccc(-c3cn[nH]c3)cc2)c1 [Example 60, (S)—N-(4-(1H-pyrazol-4-yl)phenyl)-2-((2-(dimethylamino)ethyl)amino)-2-(3-methoxyphenyl)acetamide]	258 nM	1410 nM	695 nM	98 nM	–	–	–	–
CNCCN[C@H](C(=O)Nc1ccc(-c2cn[nH]c2)cc1)c1cccc(OC)c1 [Example 63, (S)—N-(4-(1H-pyrazol-4-yl)phenyl)-2-(3-methoxyphenyl)-2-((2-(methylamino)ethyl)amino)acetamide]	81 nM	633 nM	548 nM	22 nM	–	–	–	–
CNCCN[C@@H](C(=O)Nc1ccc(-c2cn[nH]c2)cc1)c1cccc(OC)c1 [Example 62, (R)—N-(4-(1H-pyrazol-4-yl)phenyl)-2-(3-methoxyphenyl)-2-((2-(methylamino)ethyl)amino)acetamide]	3 nM	108 nM	58 nM	1.8 nM	–	–	–	–
CNC(C(=O)Nc1ccc(-c2cn[nH]c2)cc1)c1cccc(OC(F)F)c1 (stereo not drawn) [Example 24, N-(4-(1H-pyrazol-4-yl)phenyl)-2-(3-(difluoromethoxy)phenyl)-2-(methylamino)acetamide]	88 nM	1710 nM	334 nM	22 nM	–	97%	–	–
CNC(C(=O)Nc1ccc(-c2cn[nH]c2)cc1)c1cccc(Cl)c1 (stereo not drawn) [Example 20, N-(4-(1H-pyrazol-4-yl)phenyl)-2-(3-chlorophenyl)-2-(methylamino)acetamide]	–	157 nM	263 nM	1.7 nM	98%	94%	–	–
COCCN[C@@H](C(=O)Nc1ccc(-c2cn[nH]c2)cc1)c1cccc(OC)c1 [Example 58, (R)—N-(4-(1H-pyrazol-4-yl)phenyl)-2-((2-methoxyethyl)amino)-2-(3-methoxyphenyl)acetamide]	57 nM	74 nM	484 nM	12 nM	–	–	–	–
COc1cccc([C@@H](NCCN(C)C)C(=O)Nc2ccc(-c3cn[nH]c3)cc2)c1 [Example 61, (R)—N-(4-(1H-pyrazol-4-yl)phenyl)-2-((2-(dimethylamino)ethyl)amino)-2-(3-methoxyphenyl)acetamide]	7.7 nM	48 nM	35 nM	2.9 nM	–	–	–	–
COCCN[C@H](C(=O)Nc1ccc(-c2cn[nH]c2)cc1)c1cccc(OC)c1 [Example 59, (S)—N-(4-(1H-pyrazol-4-yl)phenyl)-2-((2-methoxyethyl)amino)-2-(3-methoxyphenyl)acetamide]	759 nM	> 5000 nM	4170 nM	239 nM	–	–	–	5550 nM
COCC1(NC(C(=O)Nc2ccc(-c3cn[nH]c3)cc2)c2cccc(OC)c2)CC1 (stereo not drawn) [Example 53, N-(4-(1H-pyrazol-4-yl)phenyl)-2-((1-(methoxymethyl)cyclopropyl)amino)-2-(3-methoxyphenyl)acetamide]	–	1260 nM	759 nM	31 nM	–	–	–	–
CCN(CCOC)C(C(=O)Nc1ccc(-c2cn[nH]c2)cc1)c1cccc(OC)c1 (stereo not drawn) [Example 46, N-(4-(1H-pyrazol-4-yl)phenyl)-2-(ethyl(2-methoxyethyl)amino)-2-(3-methoxyphenyl)acetamide]	–	1200 nM	1880 nM	107 nM	–	–	–	–
CCOCCNC(C(=O)Nc1ccc(-c2cn[nH]c2)cc1)c1cccc(OC)c1 (stereo not drawn) [Example 37, N-(4-(1H-pyrazol-4-yl)phenyl)-2-((2-ethoxyethyl)amino)-2-(3-methoxyphenyl)acetamide]	–	2310 nM	977 nM	37 nM	–	–	–	–
COc1cccc(C(NCCOCC(F)(F)F)C(=O)Nc2ccc(-c3cn[nH]c3)cc2)c1 (stereo not drawn) [Example 54, N-(4-(1H-pyrazol-4-yl)phenyl)-2-(3-methoxyphenyl)-2-((2-(2,2,2-trifluoroethoxy)ethyl)amino)acetamide]	–	2670 nM	1520 nM	68 nM	–	–	–	–
CNC(C(=O)Nc1ccc(-c2cn[nH]c2)cc1)c1cccc(F)c1 (stereo not drawn) [Example 18, N-(4-(1H-pyrazol-4-yl)phenyl)-2-(3-fluorophenyl)-2-(methylamino)acetamide]	–	464 nM	504 nM	10 nM	92%	89%	–	–
